Source: patent US9890152B2 (Genentech, Inc., priority 2012, dated 2018)

What follows are molecules tested against T1, EGFR del746-750 T790M (Homo sapiens, UniProt P00533, DEL746-750/T790M) (assay: EGFR del746-750 T790M biochemical assay (Caliper mobility shift)). Details: 5 μM ATP, 30 min, room temperature; apparent Ki (Morrison) converted by Cheng-Prusoff, Km of ATP 2.1 μM; read-out: EGFR(T790M/d746-750) Ki.
T1 construct: purchased Carna Biosciences 08-528
T1 sequence (P00533 with tags, fused parts or gaps DEL746-750/T790M limits assumed): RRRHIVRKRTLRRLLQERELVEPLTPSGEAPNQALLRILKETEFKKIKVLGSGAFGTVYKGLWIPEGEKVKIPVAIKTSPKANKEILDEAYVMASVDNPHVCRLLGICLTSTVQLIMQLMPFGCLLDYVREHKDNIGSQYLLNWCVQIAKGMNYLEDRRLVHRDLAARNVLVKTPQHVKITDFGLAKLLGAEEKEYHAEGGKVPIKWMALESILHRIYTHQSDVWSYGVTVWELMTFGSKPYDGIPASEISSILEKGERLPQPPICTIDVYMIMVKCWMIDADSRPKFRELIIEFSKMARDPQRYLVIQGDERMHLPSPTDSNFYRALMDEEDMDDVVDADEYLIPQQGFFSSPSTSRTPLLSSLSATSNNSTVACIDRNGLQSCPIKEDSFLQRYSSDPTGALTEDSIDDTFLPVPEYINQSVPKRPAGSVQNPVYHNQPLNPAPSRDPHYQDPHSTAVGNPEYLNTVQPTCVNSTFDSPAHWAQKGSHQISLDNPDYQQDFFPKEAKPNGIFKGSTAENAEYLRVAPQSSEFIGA

Ki [nM]	SMILES
236	Cc1nc2cnc(Nc3ccnc(N4CC[C@H]([S+](C)[O-])[C@H](F)C4)n3)cc2n1C(C)C (mixture of isomers) [Example 618, [2-(±)-(cis-3-Fluoro-4-methanesulfinylpiperidin-1-yl)pyrimidin-4-yl]-(1-isopropyl-2-methyl-1H-imidazo[4,5-c]pyridin-6-yl)amine]
60.8	CO[C@H]1CCN(c2nccc(Nc3cc4c(cn3)nc(CO)n4C(C)C)n2)C[C@H]1F [Example 655]
395	Cc1nc2cnc(Nc3ccnc(N4CC[C@@H](O)C4)n3)cc2n1C(C)C [Example 680]
18.5	C[C@H](O)c1nc2cnc(Nc3ccnc(N4CC[C@H](O)[C@H](F)C4)n3)cc2n1[C@@H](C)C(F)(F)F [Example 686]
19.6	CO[C@H]1CCN(c2nccc(Nc3cc4c(cn3)c(-c3nn(CCO)cc3C)cn4C(C)C)n2)C[C@H]1F [Example 348, 2-(3-(6-((2-((3R,4S)-3-Fluoro-4-methoxypiperidin-1-yl)pyrimidin-4-yl)amino)-1-isopropyl-1H-pyrrolo[3,2-c]pyridin-3-yl)-4-methyl-1H-pyrazol-1-yl)ethanol]
54.7	CC(C)n1cnc2cnc(Nc3ccnc(N4CC5CC4CC5F)n3)cc21 (stereo not shown) [Example 191]
146	CO[C@@H]1CCN(c2nccc(Nc3cc4c(cn3)nc(CO)n4C(C)C)n2)C[C@@H]1Cl (racemic) [Example 634, (6-(2-((±)-(cis)-3-Chloro-4-methoxypiperidin-1-yl)pyrimidin-4-ylamino)-1-isopropyl-1H-imidazo[4,5-c]pyridin-2-yl)methanol]
7.67	CC(CC(F)(F)F)n1c(CO)nc2cnc(Nc3ccnc(-c4cnn(S(=O)(=O)C5CC5)c4)n3)cc21 (stereo not shown) [Example 696]
4.01	CCC(C)n1cc(C(=O)N[C@H]2CCOC[C@H]2F)c2cnc(Nc3ccnc(N4CC[C@@H](O)[C@@H](F)C4)n3)cc21 (mixture of isomers) [Example 637, 1-(sec-butyl)-6-((2-((3S,4R)-3-fluoro-4-hydroxypiperidin-1-yl)pyrimidin-4-yl)amino)-N-((3SR, 4SR)-3-fluorotetrahydro-2H-pyran-4-yl)-1H-pyrrolo[3,2-c]pyridine-3-carboxamide]
709	O=C1CC(n2c(CO)nc3cnc(Nc4ccnc(-c5cnn(S(=O)(=O)C6CC6)c5)n4)cc32)CN1 (stereo not shown) [Example 694]
13.2	Cc1nc2cnc(Nc3ccnc(NCC(F)(F)C(N)=O)n3)cc2n1C(C)C [Example 610, 2,2-Difluoro-3-[4-(1-isopropyl-2-methyl-1H-imidazo[4,5-c]pyridin-6-ylamino)pyrimidin-2-ylamino]propionamide]
63.2	COC1CCN(c2nccc(Nc3cc4c(cn3)nc(CO)n4C(C)C)n2)CC1 [Example 10, {1-Isopropyl-6-[2-(4-methoxypiperidin-1-yl)pyrimidin-4-ylamino]-1H-imidazo[4,5-c]pyridin-2-yl}methanol]
133	CC(C)n1c(CO)nc2cnc(Nc3ccnc(N4CCC(C(F)(F)F)CC4)n3)cc21 [Example 512, (1-Isopropyl-6-((2-(4-(trifluoromethyl)piperidin-1-yl)pyrimidin-4-yl)amino)-imidazo[4,5-c]pyridin-2-yl)methanol]
4.02	CCC(C)n1cc(N2CCCC2=O)c2cnc(Nc3ccnc(N4CC[C@@H](O)[C@@H](F)C4)n3)cc21 (mixture of isomers) [Example 641, 1-(1-(sec-butyl)-6-((2-((3S,4R)-3-fluoro-4-hydroxypiperidin-1-yl)pyrimidin-4-yl)amino)-1H-pyrrolo[3,2-c]pyridin-3-yl)pyrrolidin-2-one]
44.3	CC(C)n1c([C@@H](C)O)nc2cnc(Nc3ccnc(N4CC[C@@H](O)[C@@H](F)C4)n3)cc21 [Example 658]
0.84	COC1CCN(c2nccc(Nc3cc4c(cn3)c(-c3cnn(CCO)c3)cn4C(C)C)n2)CC1 [Example 402, 2-(4-(1-isopropyl-6-((2-(4-methoxypiperidin-1-yl)pyrimidin-4-yl)amino)-1H-pyrrolo[3,2-c]pyridin-3-yl)-1H-pyrazol-1-yl)ethanol]
